Consider 1 substance from US7842462B2, “Identification of substances that inhibit NEMO oligomerization” (Institut Pasteur, priority 2006, dated 2010).

The subject of the assay is NEMO oligomerization (CFP-NEMO / YFP-NEMO). The assay can be described thus: FRET between CFP-NEMO and YFP-NEMO in lysates of doubly transfected Nemo-/- MEF cells. The class given is cell-based, murine. The following applies: pECFP-Nemo and pEYFP-Nemo doubly transfected Nemo-/- MEF cells; 30 min incubation with IL-1β (10 ng/ml); excitation 433 nm. How it is done: Rat-1, M319-5b (see supplementary data), 5R fibroblast and wild type, Ikkα^−/−Ikkβ^−/− and Nemo^−/− MEF cells were grown in Dulbecco's modified Eagle's medium supplemented with 10% fetal bovine serum. For 5R cells, 20% 5R conditioned medium was added to fresh culture medium. Transfections using Fugene 6 (Roche) were performed according to the manufacturer protocol using, per well of a 6 well-plate, 2 μg of pECFP-Nemo or pEYFP-Nemo plasmid (single transfection) or 1 μg each (double transfection). For plasmid obtaining, see supplementary data. In NF-κB complementation assays 100 ng of pEF1-lacZ (marker for transfection efficiency) and Igκ-luciferase plasmids were added to the transfection mix. Cell fluorescence was controlled with an Axiovert 200 (Zeiss) inverted microscope one day after transfection.
Cells transfected with the lacZ and the Igκ-luciferase plasmids were trypsinated, pelleted and resuspended in fresh culture medium. Cell suspension was stimulated by IL-1β (BD, Biosciences, 10 ng/ml) or TNFα (BD Biosciences, 20 ng/ml) for 30 min at 37° C. […] Kinase activity in cytosolic extracts or glycerol gradient fractions was detected as described by Yamaoka, S., Courtois, G., Bessia, C., Whiteside, S. T., Weil, R., Agou, F., Kirk, H. E., Kay, R. J. and Israel, A. (1998) Complementation cloning of NEMO, a component of the IkappaB kinase (IKK) complex essential for NF-kappaB activation. […]

On to “IL-1β: pro inflammatory cytokine (BD Biosciences) used as NF-κB pathway activating stimulus”, for which the “FRET transfer efficiency between CFP and YFP” value is 21.7%.
